Legend:
[1] = target: T1, CtRoc-COR (Chlorobaculum tepidum, UniProt Q8KC98); assay: SEC-SAXS (conformational change); assay type: binding; conditions: pre-incubated with 1 mM, pH 7.5, 5 mM MgCl2
T1 construct: gene CT1526; Roc-COR domains, residues 412-946, N-terminal His-tag (pProEX), E. coli BL21(DE3); dimer nucleotide-free, about 65 kDa monomer
T1 sequence (Q8KC98 412-946): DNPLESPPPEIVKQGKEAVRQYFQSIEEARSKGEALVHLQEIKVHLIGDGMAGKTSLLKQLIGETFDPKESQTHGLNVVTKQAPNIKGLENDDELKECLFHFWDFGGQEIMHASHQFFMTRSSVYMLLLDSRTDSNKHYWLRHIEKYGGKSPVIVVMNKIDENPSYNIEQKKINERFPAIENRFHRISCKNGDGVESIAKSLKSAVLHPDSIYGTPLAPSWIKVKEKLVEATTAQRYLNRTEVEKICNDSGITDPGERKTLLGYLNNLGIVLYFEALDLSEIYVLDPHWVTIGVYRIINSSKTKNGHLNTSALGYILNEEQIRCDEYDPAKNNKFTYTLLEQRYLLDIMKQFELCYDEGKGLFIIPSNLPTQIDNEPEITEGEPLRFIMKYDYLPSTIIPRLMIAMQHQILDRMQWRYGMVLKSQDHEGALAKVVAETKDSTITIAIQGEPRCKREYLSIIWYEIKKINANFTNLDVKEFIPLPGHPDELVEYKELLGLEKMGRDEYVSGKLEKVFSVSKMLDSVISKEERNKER

[2] = target: T2, CtRoco (Chlorobaculum tepidum, UniProt Q8KC98); assay: SEC-SAXS, AUC, negative-stain EM (conformational and oligomeric change); assay type: binding; conditions: pre-incubated with 1 mM (SAXS, EM), pH 7.5, 5 mM MgCl2
T2 construct: gene CT1526; full length, residues 1-1102, N-terminal His-tag (pProEX), E. coli BL21(DE3); dimer nucleotide-free, monomer/dimer equilibrium with GppNHp
T2 sequence (Q8KC98 1-1102): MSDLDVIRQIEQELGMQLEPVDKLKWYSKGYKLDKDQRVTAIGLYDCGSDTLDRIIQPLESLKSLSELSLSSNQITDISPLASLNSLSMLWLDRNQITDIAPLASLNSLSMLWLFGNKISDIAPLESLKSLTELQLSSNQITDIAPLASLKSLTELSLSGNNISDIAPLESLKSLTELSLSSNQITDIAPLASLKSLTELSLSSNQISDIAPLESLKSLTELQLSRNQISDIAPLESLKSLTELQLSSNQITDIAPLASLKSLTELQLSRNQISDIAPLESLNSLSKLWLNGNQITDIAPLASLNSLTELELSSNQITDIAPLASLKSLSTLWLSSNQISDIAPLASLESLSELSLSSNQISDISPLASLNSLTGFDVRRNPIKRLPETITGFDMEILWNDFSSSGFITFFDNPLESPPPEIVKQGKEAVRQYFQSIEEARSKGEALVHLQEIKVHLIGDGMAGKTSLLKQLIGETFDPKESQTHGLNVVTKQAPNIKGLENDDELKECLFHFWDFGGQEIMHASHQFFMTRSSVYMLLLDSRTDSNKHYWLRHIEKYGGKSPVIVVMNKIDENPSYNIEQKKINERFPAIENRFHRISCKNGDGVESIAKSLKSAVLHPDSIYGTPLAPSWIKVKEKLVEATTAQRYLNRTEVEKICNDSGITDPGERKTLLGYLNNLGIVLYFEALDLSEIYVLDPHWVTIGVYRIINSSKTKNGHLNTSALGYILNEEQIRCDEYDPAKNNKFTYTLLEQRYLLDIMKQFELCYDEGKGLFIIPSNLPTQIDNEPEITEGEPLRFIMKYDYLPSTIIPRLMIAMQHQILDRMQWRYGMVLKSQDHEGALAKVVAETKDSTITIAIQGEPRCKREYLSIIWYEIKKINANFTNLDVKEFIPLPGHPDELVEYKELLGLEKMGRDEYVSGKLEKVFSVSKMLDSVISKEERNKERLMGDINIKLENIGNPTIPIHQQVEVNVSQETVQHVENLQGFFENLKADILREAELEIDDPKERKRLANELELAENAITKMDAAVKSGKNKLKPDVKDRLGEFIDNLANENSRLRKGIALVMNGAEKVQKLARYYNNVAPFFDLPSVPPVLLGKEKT

For Nc1nc2c(ncn2[C@@H]2O[C@H](COP(=O)(O)OP(=O)(O)O)[C@@H](O)[C@H]2O)c(=O)[nH]1 [GDP], the “SEC-SAXS (conformational change)” value [1] was “when CtRoc-COR is saturated with either GDP or GppNHp conformational changes are taking place” and the “SEC-SAXS, AUC, negative-stain EM (conformational and oligomeric change)” value [2] was “conformational changes occur in both the CtRoco GppNHp- and GDP-bound states”.

Reference: PMC5714945, “A homologue of the Parkinson’s disease-associated protein LRRK2 undergoes a monomer-dimer transition during GTP turnover” (Nature Communications, 2017)
